This note sets out measurements from patent US12433952B2, “Antibody-drug conjugates targeting folate receptor alpha and methods of use” (ZYMEWORKS BC INC., priority 2022, dated 2025).

Type in all cases: cell-based
One data set has as its system SKOV-3 (ovarian cancer). The experiment in a line: In vitro cytotoxicity of camptothecin analogues (CellTiter-Glo). The settings on record: Homo sapiens, SK-OV-3, 96 h; 4 d incubation; read-out: pIC50 SKOV-3 (converted). Put shortly:
(§1)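 IC50 values come from CellTiter-Glo luminescence measuring growth inhibition after 4 d compound exposure at 37° C; ZR-75-1 cells were exposed 5 d instead. Cells were plated at 20,000 cells/mL, except ZR-75-1 at 10,000 cells/mL, onto serial dilutions made in RPMI 1640 with 10% FBS.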
(In general: ATP-based viability assays read luminescence as a measure of living cells.)

For a further data set, the system named is ZR-75-1 (breast cancer). The description is as above. The settings on record: Homo sapiens, ZR-75-1, 120 h; 5 d incubation; read-out: pIC50 ZR-75 (converted). Put shortly: as §1
A further data set relates to SK-BR-3 (breast cancer). Described as above. To be noted: Homo sapiens, SK-BR-3, 96 h; 4 d incubation; read-out: pIC50 SKBR-3 (converted). Put shortly:
as §1

In data set [1] the test system is MDA-MB-468 (breast cancer). The description is as above. To be noted: Homo sapiens, MDA-MB-468, 96 h; 4 d incubation; read-out: pIC50 MDA-MB-468 (converted). The method in brief: as §1
In the next data set the test system is Calu-3 (lung cancer). The description is as above. To be noted: Homo sapiens, Calu-3, 96 h; 4 d incubation; read-out: pIC50 Calu-3 (converted). Put shortly:
as §1

In data set [2] the test system is FRα-negative MDA-MB-468 cells co-cultured with FRα-positive JEG-3. In words: Bystander activity of ADCs (mono-culture vs co-culture, flow cytometry). To be noted: 4 days; for bystander activity / Average MDA-MB-468 Viability (%) Mono-culture / % Bystander Activity: 2 nM ADC; for bystander activity: viability of MDA-MB-468 in co-culture vs mono-culture; for Average MDA-MB-468 Viability (%) Co-culture: MDA-MB-468 co-cultured with JEG-3, 2 nM ADC; for Average MDA-MB-468 Viability (%) Co-culture / Average MDA-MB-468 Viability (%) Mono-culture: relative to untreated blank; for Average MDA-MB-468 Viability (%) Mono-culture: MDA-MB-468 mono-culture; for % Bystander Activity: mono-culture viability compared with co-culture viability. Here is the method:
The ability of the humanized variant v30384 conjugated to various drug-linkers to exert a bystander killing effect on cancer cells was assessed according to the method described below. Bystander killing most commonly occurs after target-specific uptake of an ADC into an antigen-positive cell. Trafficking and degradation of the ADC results in release of active catabolite free drug, which then crosses the cell membrane of nearby cells to elicit cell death.
FRα-positive JEG-3 and FRα-negative MDA-MB-468 cells were seeded either as mono-cultures or co-cultures in a 48-well plate at 20,000 cells and 10,000 cells, respectively, in 100 μL assay media (Minimum Essential Media supplemented with 10% Fetal Bovine Serum (both from Thermo Fisher Scientific, Waltham, MA)). ADCs were diluted to 4 nM in assay media and 100 μL was added to the cell-containing plates (2 nM final ADC concentration). Cells were incubated with ADCs for 4 days under standard culturing conditions (37° C./5% C02). Following incubation, cells were dissociated, washed, and stained using a viability dye, YO—PRO®-1 (ThermoFisher Scientific, Waltham, MA), and an anti-FRα antibody, mirvetuximab (v17716), conjugated to Alexa Fluor®647, for 20 minutes at 4° C. After incubation, cells were washed in FACS buffer (phosphate buffered saline pH 7.4 (ThermoFisher Scientific, Waltham, MA) supplemented with 2% FBS), resuspended in 70 μL FACS buffer per well, and 35 μL per well were analyzed on a BD LSRFortessa™ Cell Analyzer (BD Biosciences, Franklin Lake, NJ). Dead cells were excluded by gating on YO—PRO®-1 staining. The number of JEG-3 and MDA-MB-468 cells were determined by the number of events in the Alexa Fluor®647 positive (FRα-positive) and Alexa Fluor®647 negative (FRα-negative) gates, respectively. Percent viability was calculated as the number of cells in treatment condition divided by the number of cells in the no-treatment condition.
(A flow cytometer gives signals particle by particle.)

With `CC[C@@]1(O)C(=O)OCc2c1cc1n(c2=O)Cc2c-1nc1cc(F)c(C)cc1c2CNC(=O)NCCO` [Compound 136, (S)-1-((4-ethyl-8-fluoro-4-hydroxy-9-methyl-3,14-dioxo-3,4,12,14-tetrahydro-1H-pyrano[3′,4′:6,7]indolizino[1,2-b]quinolin-11-yl)methyl)-3-(2-hydroxyethyl)urea], the IC50 in the data set on SKOV-3 (ovarian cancer) was 51.3 nM; in the data set on ZR-75-1 (breast cancer) it was 5.01 nM; with SK-BR-3 (breast cancer), 3.98 nM; in data set [1], 6.31 nM; with Calu-3 (lung cancer) it was 26.3 nM.

Turning to `CC[C@@]1(O)C(=O)OCc2c1cc1n(c2=O)Cc2c-1nc1cc(F)c(C)cc1c2CNC(=O)OC` [Compound 138, Methyl-(S)-((4-ethyl-8-fluoro-4-hydroxy-9-methyl-3,14-dioxo-3,4,12,14-tetrahydro-1H-pyrano[3′,4′:6,7]indolizino[1,2-b]quinolin-11-yl)methyl)carbamate], the IC50 in the data set with SKOV-3 (ovarian cancer) was 0.617 nM; in the data set on ZR-75-1 (breast cancer), 0.195 nM; in the data set on SK-BR-3 (breast cancer) it was 0.479 nM; in data set [1], 0.871 nM; in the data set on Calu-3 (lung cancer), 0.389 nM.

Take `CC[C@@]1(O)C(=O)OCc2c1cc1n(c2=O)Cc2c-1nc1cc(F)c(C)cc1c2CNC(=O)OCCO` [Compound 139, 2-hydroxyethyl (S)-((4-ethyl-8-fluoro-4-hydroxy-9-methyl-3,14-dioxo-3,4,12,14-tetrahydro-1H-pyrano[3′,4′:6,7]indolizino[1,2-b]quinolin-11-yl)methyl)carbamate]: the IC50 is 5.01 nM in the data set with SKOV-3 (ovarian cancer); 1.07 nM in the data set on ZR-75-1 (breast cancer); 1.2 nM in the data set on SK-BR-3 (breast cancer); 1.51 nM in data set [1]; 7.08 nM with Calu-3 (lung cancer).

Turning to `CC[C@@]1(O)C(=O)OCc2c1cc1n(c2=O)Cc2cc3cc(N)c(F)cc3nc2-1` [Compound 140, (S)-9-amino-4-ethyl-8-fluoro-4-hydroxy-1,12-dihydro-14H-pyrano[3′,4′:6,7]indolizino [1,2-b]quinoline-3,14(4H)-dione], the IC50 was 0.457 nM with SKOV-3 (ovarian cancer); 0.331 nM in the data set on ZR-75-1 (breast cancer); 0.316 nM in the data set with SK-BR-3 (breast cancer); 0.708 nM in data set [1]; 0.309 nM in the data set with Calu-3 (lung cancer).

On to `CC[C@@]1(O)C(=O)OCc2c1cc1n(c2=O)Cc2c-1nc1cc(F)c(N)cc1c2CO` [Compound 141, (S)-9-amino-4-ethyl-8-fluoro-4-hydroxy-11-(hydroxymethyl)-1,12-dihydro-14H-pyrano[3′,4′:6,7]indolizino[1,2-b]quinoline-3,14(4H)-dione], for which the IC50 in the data set with SKOV-3 (ovarian cancer) was 2.82 nM; in the data set on ZR-75-1 (breast cancer) it was 0.309 nM; in the data set with SK-BR-3 (breast cancer), 0.347 nM; in data set [1], 1.45 nM; in the data set with Calu-3 (lung cancer), 1.02 nM.

On to `CC[C@@]1(O)C(=O)OCc2c1cc1n(c2=O)Cc2c-1nc1cc(F)c(N)cc1c2CN1CCOCC1` [Compound 142, (S)-9-amino-4-ethyl-8-fluoro-4-hydroxy-11-(morpholinomethyl)-1,12-dihydro-14H-pyrano[3′,4′:6,7]indolizino[1,2-b]quinoline-3,14(4H)-dione], for which the IC50 is 1.29 nM with SKOV-3 (ovarian cancer); 0.759 nM in the data set on ZR-75-1 (breast cancer); 0.631 nM in the data set with SK-BR-3 (breast cancer); 1.29 nM in data set [1]; 1.29 nM with Calu-3 (lung cancer).

On to `CC[C@@]1(O)C(=O)OCc2c1cc1n(c2=O)Cc2c-1nc1cc(F)c(N)cc1c2CNC(=O)OC` [Compound 143, Methyl (S)-((9-amino-4-ethyl-8-fluoro-4-hydroxy-3,14-dioxo-3,4,12,14-tetrahydro-1H-pyrano[3′,4′:6,7]indolizino[1,2-b]quinolin-11-yl)methyl)carbamate], for which the IC50 in the data set on SKOV-3 (ovarian cancer) was 2.82 nM; in the data set on ZR-75-1 (breast cancer) it was 0.851 nM; in the data set on SK-BR-3 (breast cancer) it was 0.389 nM; in data set [1], 0.708 nM; in the data set on Calu-3 (lung cancer), 0.708 nM.

`CC[C@@]1(O)C(=O)OCc2c1cc1n(c2=O)Cc2c-1nc1cc(F)c(N)cc1c2CNC(=O)NC` [Compound 144, (S)-1-((9-amino-4-ethyl-8-fluoro-4-hydroxy-3,14-dioxo-3,4,12,14-tetrahydro-1H-pyrano[3′,4′:6,7]indolizino[1,2-b]quinolin-11-yl)methyl)-3-methylurea]: the IC50 in the data set with SKOV-3 (ovarian cancer) is 69.2 nM; in the data set on ZR-75-1 (breast cancer), 13.2 nM; in the data set with SK-BR-3 (breast cancer) it was 0.794 nM; in data set [1] it was 22.4 nM; in the data set on Calu-3 (lung cancer) it was 22.4 nM.

With `CC[C@@]1(O)C(=O)OCc2c1cc1n(c2=O)Cc2c-1nc1cc(F)c(N)cc1c2CN` [Compound 145, (S)-9-amino-11-(aminomethyl)-4-ethyl-8-fluoro-4-hydroxy-1,12-dihydro-14H-pyrano[3′,4′:6,7]indolizino[1,2-b]quinoline-3,14(4H)-dione], the IC50 with SKOV-3 (ovarian cancer) was 0.933 nM; with ZR-75-1 (breast cancer), 0.38 nM; in the data set with SK-BR-3 (breast cancer), 0.355 nM; in data set [1], 0.269 nM; in the data set with Calu-3 (lung cancer) it was 0.269 nM.

Consider `CC[C@@]1(O)C(=O)OCc2c1cc1n(c2=O)Cc2c-1nc1cc(F)c(N)cc1c2CNS(C)(=O)=O` [Compound 146, (S)—N-((9-amino-4-ethyl-8-fluoro-4-hydroxy-3,14-dioxo-3,4,12,14-tetrahydro-1H-pyrano[3′,4′:6,7]indolizino[1,2-b]quinolin-11-yl)methyl)methanesulfonamide], for which the IC50 was 11.2 nM in the data set on SKOV-3 (ovarian cancer); 6.03 nM with ZR-75-1 (breast cancer); 1.74 nM in the data set with SK-BR-3 (breast cancer); 4.37 nM in data set [1]; 4.37 nM in the data set with Calu-3 (lung cancer).

In the case of `CC[C@@]1(O)C(=O)OCc2c1cc1n(c2=O)Cc2c-1nc1cc(F)c(N)cc1c2CN1CCN(C)CC1` [Compound 149, (S)-9-amino-4-ethyl-8-fluoro-4-hydroxy-11-((4-methylpiperazin-1-yl)methyl)-1,12-dihydro-14H-pyrano[3′,4′:6,7]indolizino[1,2-b]quinoline-3,14(4H)-dione], the IC50 in the data set with SKOV-3 (ovarian cancer) was 10 nM; in the data set with ZR-75-1 (breast cancer), 1.82 nM; with SK-BR-3 (breast cancer), 3.16 nM; in data set [1], 6.31 nM; in the data set on Calu-3 (lung cancer) it was 6.31 nM.

Consider `CC[C@@]1(O)C(=O)OCc2c1cc1n(c2=O)Cc2c-1nc1cc(F)c(N)cc1c2CNC(=O)NCCO` [Compound 151, (S)-1-((9-amino-4-ethyl-8-fluoro-4-hydroxy-3,14-dioxo-3,4,12,14-tetrahydro-1H-pyrano[3′,4′:6,7]indolizino[1,2-b]quinolin-11-yl)methyl)-3-(2-hydroxyethyl)urea], for which the IC50 is 45.7 nM in the data set with SKOV-3 (ovarian cancer); 5.89 nM in the data set on ZR-75-1 (breast cancer); 2.69 nM in the data set with SK-BR-3 (breast cancer); 11.5 nM in data set [1]; 11.5 nM with Calu-3 (lung cancer).

For the compound “palivizumab MC-GGFG-AM-DXd1: "ADCs comprising palivizumab (v22277) conjugated to MC-GGFG-AM-DXd1 and MCvcPABC-MMAE were included as negative controls"”, the bystander activity entry in data set [2] is recorded as “negative bystander activity”.

With “palivizumab MCvcPABC-MMAE: "ADCs comprising palivizumab (v22277) conjugated to MC-GGFG-AM-DXd1 and MCvcPABC-MMAE were included as negative controls"”, the bystander activity result in data set [2] is “negative bystander activity”.

Turning to “v22277-MC-GGFG-AM-DXd1: "negative controls palivizumab (anti-RSV) (v22277) conjugated to MC-GGFG-AM-DXd1 (DAR 8) and MCvcPABC-MMAE (DAR 4)"”, in data set [2], the “Average MDA-MB-468 Viability (%) Co-culture” value is recorded as 101.8%, the “Average MDA-MB-468 Viability (%) Mono-culture” value is on record as 91.6% and the “% Bystander Activity” value is −10.2%.

“v22277-MCvcPABC-MMAE: "negative controls palivizumab (anti-RSV) (v22277) conjugated to MC-GGFG-AM-DXd1 (DAR 8) and MCvcPABC-MMAE (DAR 4)"”: in data set [2], the “Average MDA-MB-468 Viability (%) Co-culture” value came to 94.2%, the “Average MDA-MB-468 Viability (%) Mono-culture” value was determined as 81.3% and the “% Bystander Activity” value is −12.9%.
